How the values were obtained:
[1] = system: MDA-MB-231 breast cancer cell line; assay: Cytotoxic assay against MDA-MB-231 breast cancer cell line; assay type: cell-based; conditions: Homo sapiens, MDA-MB-231; mean of three independent replicates ± SE; read-out: IC50 Value (μM) MDA-MB-231
Description: The newly prepared Schiff bases 2–5g were screened for their in vitro cytotoxic activity against the MDA-MB-231 breast cancer cell line taking CA-4 as a reference drug. […] In addition, further structure extension to give N-aryl hydrazinyl molecules 4a–5g produced compounds with considerable cytotoxic activity, which may give an indication that the aryl ring is important for cytotoxic activity. […]
Cytotoxic activity of the prepared schiff bases against MDA-MB-231 breast cell Line was determined according previously reported methods. (See Supplementary Materials—Appendix SB).

[2] = system: mitochondrial membrane potential of MDA-MB-231 cells; assay: Mitochondrial membrane potential by flow cytometry; assay type: cell-based, human
Description: Most of the known anticancer molecules induce apoptotic cascade via activation of the intrinsic pathway via release of cytochrome-c after depolarization of mitochondrial membrane. The potential status of the mitochondrial membrane is determined by the electrochemical gradient (Δψ).
(§1) See Supplementary Materials—Appendix SB.

[3] = system: MDA-MB-231 cells; assay: Cell cycle analysis (FACS, DNA flow cytometry); assay type: cell-based, human
From the text: For the purpose of studying the influence of these hydrazides on the cell cycle progression of MDA-MB-231 human malignant cell lines. A FACS analysis was used to determine the DNA proportion of cell nuclei.
as §1

[4] = system: MDA-MB-231 cells; assay: Annexin V FITC/PI staining apoptosis assay; assay type: cell-based, human
Description: A double staining examination of annexin V FITC/propidium iodide (PI) was used to evaluate compound 4h’s influence on apoptosis and estimate the percentage of the total, early, and late apoptosis in MDA-MB-231 cells. […] Furthermore, the proportion of early and late apoptotic cells rose by 23.12- and 63.67-fold, respectively, as compared to the untreated control cells.
as §1

[5] = system: normal breast cell line MCF-10A; assay: Cytotoxic assay against normal breast cell line MCF-10A; assay type: cell-based; conditions: Homo sapiens, mean of three independent replicates ± SE, read-out: IC50 Value (μM) MCF-10A
[6] = system: tubulin; assay: Tubulin polymerization inhibition by immunofluorescence analysis (confocal microscope); assay type: cell-based, human; conditions: at its IC50 concentration, MDA-MB-231, compared with untreated cells
Description: Several investigations have shown that TMP-containing compounds such as Col and CA-4 interact with tubulin at the colchicine binding site, inhibiting microtubule assembly. The effects of representative Schiff bases on the inhibition of tubulin assembly were evaluated. […] Tubulin polymerization inhibitory activity against the MDA-MB-231 cell line was investigated by immunofluorescence analysis using a confocal microscope.
(§2) Compound 4h was evaluated for their Tubulin inhibitory activity according to manufacturer’s instructions.

[7] = system: β-tubulin; assay: Tubulin polymerization inhibitory activity, ELISA assay for β-tubulin; assay type: cell-based, human; conditions: at IC50 (1.27 μM), compared with no treatment control
Description: In addition, compound 4h was subjected to in vitro tubulin polymerization inhibitory activity assay using ELISA assay for β-tubulin.
as §2

[8] = system: MCF-7 breast cancer cell line; conditions: MCF-7 ref 26; cited from earlier work
[9] = system: tubulin; set-up: method as in PMID 32325332; conditions: at its IC50 dose level ref 22; cited from earlier work
[10] = system: four human cancer cell lines; set-up: method as in PMID 27149641; conditions: four human cancer cell lines ref 21; read-out: IC50 antiproliferative activity; cited from earlier work
[11] = compared to untreated control cells

COc1cc(/C=C(\NC(=O)c2cc(OC)c(OC)c(OC)c2)C(=O)N/N=C/c2cc(Br)c(O)c(Br)c2)cc(OC)c1OC [Compound 4h, N-((Z)-3-((E)-2-(3,5-Dibromo-4-hydroxybenzylidene)hydrazinyl)-3-oxo-1-(3,4,5-trimethoxyphenyl)prop-1-en-2-yl)-3,4,5-trimethoxybenzamide]
IC50 [1]: 1.27 ± 0.18 µM
reduction in the level of MMPψ ([2]; IC50 concentration, 24 h, in comparison with untreated cells): 65.23%
decrease in the level of MMP ([2]; compared to negative control cells): 3 fold
%Pre-G1 ([3]; IC50 concentration, 24 h): 31.27%
%DIP G2/M ([3]; IC50 concentration, 24 h, untreated control 8.22%): 38.65%
cell cycle arrest at G2/M phase relative to control cells ([3]; versus control MDA-MB-231 cells): fivefold
increase in percentage of pre-G1 phase relative to negative control ([3]; versus negative control cells): ~19 fold
overall apoptosis ([4]; 24 h, no treatment control 1.63%): 31.27%
rise of early apoptotic cells [4, 11]: 23.12 fold
rise of late apoptotic cells [4, 11]: 63.67 fold
IC50 [5]: 30.8 ± 2.32 µM
tubulin polymerization inhibition activity (immunofluorescence) [6]: good tubulin polymerization inhibition activity
percent inhibition of tubulin polymerization [7]: 78.14%

COc1cc(C(=O)N/N=C/c2cc3ccccc3[nH]2)cc(OC)c1OC [VII]
IC50 [8]: 870 nM

COc1cc(C(=O)NNC(=O)c2ccc(NC(=O)CCl)cc2)cc(OC)c1OC [VI]
in vitro tubulin polymerization inhibition activity [9]: 83.1%

COc1ccc2c(c1)NC(/C=C(\C)C(=O)c1cc(OC)c(OC)c(OC)c1)C2 (stereo not shown) [V]
IC50 [10]: 3 to 9 nM

Source: PMC9230623, “Design, Synthesis, In Vitro Biological Activity Evaluation and Stabilized Nanostructured Lipid Carrier Formulation of Newly Synthesized Schiff Bases-Based TMP Moieties” (Pharmaceuticals, 2022)
